Assay results: patent US20110306606A1, “NOVEL 2,6-SUBSTITUTED-3-NITROPYRIDINE DERIVATIVE, METHOD FOR PREPARING SAME, AND PHARMACEUTICAL COMPOSITION INCLUDING SAME” (priority 2008, published 2011)

Tested on: Osteoblasts (Calvarial cells)
Assay: Cytotoxicity test (MTT)
Settings: 1 μM compound, 72 hours, in comparison with vehicle control

Row | SMILES | Cell viability (%) Calvarial cell [%]
1 | CN1CCN(c2ccc([N+](=O)[O-])c(Nc3ccc(N4CCC(N)CC4)c(F)c3)n2)CC1 [Compound 254, 2-{[3-fluoro-4-(4-aminopiperidino)]phenylamino}-6-(4-methylpiperazin-1-yl)-3-nitropyridine] | 101
2 | CC(C)(C)Nc1ccc([N+](=O)[O-])c(Nc2ccc(N3CCC(O)CC3)c(F)c2)n1 [Compound 243, 2-{[3-fluoro-4-(4-hydroxypiperidino)]phenylamino}-6-(t-butylamino)-3-nitropyridine] | 97
3 | Cc1ccc(Nc2nc(N(C)CC3OCCO3)ccc2[N+](=O)[O-])cc1 [Compound 4, 2-(4-methylphenylamino)-6-[(N-[1,3]-dioxolan-2-ylmethyl)methylamino]-3-nitropyridine] | 104
4 | NC1CCN(c2ccc([N+](=O)[O-])c(Nc3ccc(N4CCC(N)CC4)c(F)c3)n2)CC1 [Compound 256] | 104
5 | O=C(O)C1CCN(c2ccc(Nc3nc(NCc4cccnc4)ccc3[N+](=O)[O-])cc2F)CC1 [Compound 321, 2-{[3-fluoro-4-(4-carboxylicpiperidino)]phenylamino}-6-[(3-pyridyl)methylamino]-3-nitropyridine] | 101
6 | O=[N+]([O-])c1ccc(NCCc2ccccn2)nc1Nc1ccc(N2CCCC(CO)C2)c(F)c1 (centres unmarked) [Compound 287, 2-{[3-fluoro-4-(3-hydroxymethylpiperidino)]phenylamino}-6-[2-(2-pyridyl)ethylamino]-3-nitropyridine] | 103
7 | CC(C)Nc1ccc([N+](=O)[O-])c(Nc2ccc(N3CCSCC3)c(F)c2)n1 [Compound 204, 2-[(3-fluoro-4-thiomorpholino)phenylamino]-6-(isopropylamino)-3-nitropyridine] | 102
8 | CNc1ccc([N+](=O)[O-])c(Nc2ccc(N3CCC(C(=O)O)CC3)c(F)c2)n1 [Compound 316, 2-{[3-fluoro-4-(4-carboxylicpiperidino)]phenylamino}-6-(methylamino)-3-nitropyridine] | 95
9 | NC1CCN(c2ccc(Nc3nc(N4CCOCC4)ccc3[N+](=O)[O-])cc2F)CC1 [Compound 255, 2-{[3-fluoro-4-(4-aminopiperidino)]phenylamino}-6-morpholino-3-nitropyridine] | 100
10 | CC(C)CNc1ccc([N+](=O)[O-])c(Nc2ccc(N3CCC(C(N)=O)CC3)c(F)c2)n1 [Compound 291, 2-{[3-fluoro-4-(4-carbamoylpiperidino)]phenylamino}-6-(isobutylamino)-3-nitropyridine] | 87
11 | O=C(O)C1CCN(c2ccc(Nc3nc(NCc4ccncc4)ccc3[N+](=O)[O-])cc2F)CC1 [Compound 322, 2-{[3-fluoro-4-(4-carboxylicpiperidino)]phenylamino}-6-[(4-pyridyl)methylamino]-3-nitropyridine] | 106
12 | CC1CCCCN1c1ccc(Nc2nc(N3CCN(C)CC3)ccc2[N+](=O)[O-])cc1F (centres unmarked) [Compound 268, 2-{[3-fluoro-4-(2-methylpiperidino)]phenylamino}-6-(4-methylpiperazin-1-yl)-3-nitropyridine] | 104
13 | NC(=O)C1CCCN(c2ccc(Nc3nc(NCc4ccncc4)ccc3[N+](=O)[O-])cc2F)C1 (centres unmarked) [Compound 311, 2-{[3-fluoro-4-(3-carbamoylpiperidino)]phenylamino}-6-[(4-pyridyl)methylamino]-3-nitropyridine] | 98
14 | NC(=O)C1CCN(c2ccc(Nc3nc(N4CCC(O)CC4)ccc3[N+](=O)[O-])cc2F)CC1 [Compound 293, 2-{[3-fluoro-4-(4-carbamoylpiperidino)]phenylamino}-6-(4-hydroxypiperidino)-3-nitropyridine] | 104
15 | O=[N+]([O-])c1ccc(NC2CC2)nc1Nc1ccc(N2CCCC(CO)C2)c(F)c1 (centres unmarked) [Compound 288, 2-{[3-fluoro-4-(3-hydroxymethylpiperidino)]phenylamino}-6-(cyclopropylamino)-3-nitropyridine] | 103
16 | O=[N+]([O-])c1ccc(N2CCNCC2)nc1Nc1ccc(N2CCCC(CO)C2)c(F)c1 (centres unmarked) [Compound 281, 2-{[3-fluoro-4-(3-hydroxymethylpiperidino)]phenylamino}-6-(piperazin-1-yl)-3-nitropyridine] | 107
17 | CN1CCN(c2ccc([N+](=O)[O-])c(Nc3ccc(N4CCC(C(N)=O)CC4)c(F)c3)n2)CC1 [Compound 295, 2-{[3-fluoro-4-(4-carbamoylpiperidino)]phenylamino}-6-(4-methylpiperazin-1-yl)-3-nitropyridine] | 106
18 | NC(=O)C1CCCN(c2ccc(Nc3nc(NCc4cccnc4)ccc3[N+](=O)[O-])cc2F)C1 (centres unmarked) [Compound 310, 2-{[3-fluoro-4-(3-carbamoylpiperidino)]phenylamino}-6-[(3-pyridyl)methylamino]-3-nitropyridine] | 97

Row | SMILES | Cell viability (%) Calvarial cell [%]
19 | O=C(O)C1CCN(c2ccc(Nc3nc(NCCN4CCOCC4)ccc3[N+](=O)[O-])cc2F)CC1 [Compound 324, 2-{[3-fluoro-4-(4-carboxylicpiperidino)]phenylamino}-6-[2-(morpholin-1-yl)ethylamino]-3-nitropyridine] | 82
20 | NC(=O)C1CCN(c2ccc(Nc3nc(NCCN4CCOCC4)ccc3[N+](=O)[O-])cc2F)CC1 [Compound 300, 2-{[3-fluoro-4-(4-carbamoylpiperidino)]phenylamino}-6-[2-(morpholin-1-yl)ethylamino]-3-nitropyridine] | 118
21 | CC1=NCCN1c1ccc([N+](=O)[O-])c(Nc2ccc(N3CCOCC3)c(F)c2)n1 [Compound 195, 2-[(3-fluoro-4-morpholino)phenylamino]-6-[(2-methyl-4,5-dihydro)imidazol-1-yl]-3-nitropyridine] | 104
22 | NC(=O)C1CCCN(c2ccc(Nc3nc(N4CCC(N)CC4)ccc3[N+](=O)[O-])cc2F)C1 (centres unmarked) [Compound 309, 2-{[3-fluoro-4-(3-carbamoylpiperidino)]phenylamino}-6-(4-aminopiperidino)-3-nitropyridine] | 110
23 | CCN(CC)c1ccc(Nc2nc(NCCCn3ccnc3)ccc2[N+](=O)[O-])cc1F [Compound 189, 2-[(3-fluoro-4-diethylamino)phenylamino]-6-[(3-imidazol-1-yl)propylamino]-3-nitropyridine] | 129
24 | CC(C)(C)Nc1ccc([N+](=O)[O-])c(Nc2ccc(N3CCSCC3)c(F)c2)n1 [Compound 211, 2-[(3-fluoro-4-thiomorpholino)phenylamino]-6-(t-butylamino)-3-nitropyridine] | 110
25 | CC1CCCCN1c1ccc(Nc2nc(N3CCOCC3)ccc2[N+](=O)[O-])cc1F (centres unmarked) [Compound 269, 2-{[3-fluoro-4-(2-methylpiperidino)]phenylamino}-6-morpholino-3-nitropyridine] | 113
26 | CC1CCCCN1c1ccc(Nc2nc(NCc3ccncc3)ccc2[N+](=O)[O-])cc1F (centres unmarked) [Compound 271, 2-{[3-fluoro-4-(2-methylpiperidino)]phenylamino}-6-[(4-pyridyl)methylamino]-3-nitropyridine] | 107
27 | CC1CCCCN1c1ccc(Nc2nc(NCCCn3ccnc3)ccc2[N+](=O)[O-])cc1F (centres unmarked) [Compound 272, 2-{[3-fluoro-4-(2-methylpiperidino)]phenylamino}-6-[(3-imidazol-1-yl)propylamino]-3-nitropyridine] | 98
28 | CC1=NCCN1c1ccc([N+](=O)[O-])c(Nc2ccc(N3CCSCC3)c(F)c2)n1 [Compound 207, 2-[(3-fluoro-4-thiomorpholino)phenylamino]-6-[(2-methyl-4,5-dihydro)imidazol-1-yl]-3-nitropyridine] | 102
29 | CC(C)Nc1ccc([N+](=O)[O-])c(Nc2ccc(N3CCCC(CO)C3)c(F)c2)n1 (centres unmarked) [Compound 276, 2-{[3-fluoro-4-(3-hydroxymethylpiperidino)]phenylamino}-6-(isopropylamino)-3-nitropyridine] | 102
30 | CCN(CC)c1ccc(Nc2nc(N3CCOCC3)ccc2[N+](=O)[O-])cc1F [Compound 184, 2-[(3-fluoro-4-diethylamino)phenylamino]-6-morpholino-3-nitropyridine] | 110
31 | NC(=O)C1CCCN(c2ccc(Nc3nc(N4CCOCC4)ccc3[N+](=O)[O-])cc2F)C1 (centres unmarked) [Compound 308, 2-{[3-fluoro-4-(3-carbamoylpiperidino)]phenylamino}-6-morpholino-3-nitropyridine] | 109
32 | CNc1ccc([N+](=O)[O-])c(Nc2ccc(N3CCCC(C(N)=O)C3)c(F)c2)n1 (centres unmarked) [Compound 301, 2-{[3-fluoro-4-(3-carbamoylpiperidino)]phenylamino}-6-(methylamino)-3-nitropyridine] | 95
33 | O=[N+]([O-])c1ccc(NCc2cccnc2)nc1Nc1ccc(N2CCCC(CO)C2)c(F)c1 (centres unmarked) [Compound 285, 2-{[3-fluoro-4-(3-hydroxymethylpiperidino)]phenylamino}-6-[(3-pyridyl)methylamino]-3-nitropyridine] | 106
34 | CCN(CC)c1ccc(Nc2nc(N3CCC(O)CC3)ccc2[N+](=O)[O-])cc1F [Compound 179, 2-[(3-fluoro-4-diethylamino)phenylamino]-6-(4-hydroxypiperidino)-3-nitropyridine] | 104
35 | CC1CCCCN1c1ccc(Nc2nc(NCCN3CCOCC3)ccc2[N+](=O)[O-])cc1F (centres unmarked) [Compound 273, 2-{[3-fluoro-4-(2-methylpiperidino)]phenylamino}-6-[2-(morpholin-1-yl)ethylamino]-3-nitropyridine] | 115
